In PubChem BioAssay (NCI):
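In this assay, cells in 96-well plates receive the compound at five concentrations for 48 hours. Endpoints are linearly interpolated between the surrounding concentrations. TGI: concentration producing complete growth inhibition.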

How the values were obtained:
Assay in all cases: NCI-60 cell line screen, 48 h
786-0 renal = system: 786-0 renal
A498 renal = system: A498 renal
A549 NSCLC = system: A549 NSCLC
ACHN renal = system: ACHN renal
BT-549 breast = system: BT-549 breast
CAKI-1 renal = system: CAKI-1 renal
CCRF-CEM leukemia = system: CCRF-CEM leukemia
COLO 205 colon = system: COLO 205 colon
DU-145 prostate = system: DU-145 prostate
HCC-2998 colon = system: HCC-2998 colon
HCT-116 colon = system: HCT-116 colon
HCT-15 colon = system: HCT-15 colon
HL-60(TB) leukemia = system: HL-60(TB) leukemia
HOP-62 NSCLC = system: HOP-62 NSCLC
HOP-92 NSCLC = system: HOP-92 NSCLC
HS 578T breast = system: HS 578T breast
HT29 colon = system: HT29 colon
IGROV1 ovarian = system: IGROV1 ovarian
K-562 leukemia = system: K-562 leukemia
KM12 colon = system: KM12 colon
LOX IMVI melanoma = system: LOX IMVI melanoma
M14 melanoma = system: M14 melanoma
MALME-3M melanoma = system: MALME-3M melanoma
MCF7 breast = system: MCF7 breast
MDA-MB-231 breast = system: MDA-MB-231 breast
MDA-MB-435 = system: MDA-MB-435
MDA-N = system: MDA-N
MOLT-4 leukemia = system: MOLT-4 leukemia
NCI-H226 lung = system: NCI-H226 lung
NCI-H23 lung = system: NCI-H23 lung
NCI-H460 lung = system: NCI-H460 lung
NCI-H522 lung = system: NCI-H522 lung
NCI/ADR-RES ovarian = system: NCI/ADR-RES ovarian
OVCAR-3 ovarian = system: OVCAR-3 ovarian
OVCAR-4 ovarian = system: OVCAR-4 ovarian
OVCAR-5 ovarian = system: OVCAR-5 ovarian
OVCAR-8 ovarian = system: OVCAR-8 ovarian
PC-3 prostate = system: PC-3 prostate
RPMI-8226 leukemia = system: RPMI-8226 leukemia
RXF 393 renal = system: RXF 393 renal
SF-268 CNS = system: SF-268 CNS
SF-295 CNS = system: SF-295 CNS
SF-539 CNS = system: SF-539 CNS
SK-MEL-2 melanoma = system: SK-MEL-2 melanoma
SK-MEL-28 melanoma = system: SK-MEL-28 melanoma
SK-MEL-5 melanoma = system: SK-MEL-5 melanoma
SK-OV-3 ovarian = system: SK-OV-3 ovarian
SN12C renal = system: SN12C renal
SNB-19 CNS = system: SNB-19 CNS
SNB-75 CNS = system: SNB-75 CNS
SR leukemia = system: SR leukemia
SW-620 colon = system: SW-620 colon
T-47D breast = system: T-47D breast
TK-10 renal = system: TK-10 renal
U251 CNS = system: U251 CNS
UACC-257 melanoma = system: UACC-257 melanoma
UACC-62 melanoma = system: UACC-62 melanoma
UO-31 renal = system: UO-31 renal
EKVX NSCLC = system: EKVX NSCLC

Measured: TGI

O=C1CSC(c2ccccc2O)N1c1ccc(-n2c(-c3ccccc3)nc3ccccc3c2=O)cc1 (stereo not drawn)
65.8 µM: T-47D breast
82.2 µM: UACC-257 melanoma
> 100 µM: 786-0 renal | A498 renal | A549 NSCLC | CAKI-1 renal | CCRF-CEM leukemia | COLO 205 colon | DU-145 prostate | HCC-2998 colon | HL-60(TB) leukemia | HS 578T breast | HT29 colon | K-562 leukemia | M14 melanoma | MCF7 breast | MDA-N | MOLT-4 leukemia | NCI-H23 lung | OVCAR-4 ovarian | OVCAR-5 ovarian | OVCAR-8 ovarian | RPMI-8226 leukemia | RXF 393 renal | SF-268 CNS | SK-MEL-28 melanoma | SN12C renal | SNB-19 CNS | SNB-75 CNS | SR leukemia | SW-620 colon | TK-10 renal | U251 CNS
66 µM: NCI-H522 lung
61.5 µM: BT-549 breast
95.3 µM: SK-OV-3 ovarian
58.7 µM: PC-3 prostate
69 µM: LOX IMVI melanoma
97.7 µM: KM12 colon
90.3 µM: UACC-62 melanoma
72.6 µM: NCI/ADR-RES ovarian
50.8 µM: NCI-H460 lung
41.5 µM: OVCAR-3 ovarian
77.5 µM: HOP-62 NSCLC
50.5 µM: SF-295 CNS
37.5 µM: MDA-MB-231 breast
59.1 µM: SK-MEL-2 melanoma
93.9 µM: IGROV1 ovarian
77.2 µM: UO-31 renal
35.9 µM: HCT-116 colon | SK-MEL-5 melanoma
58.9 µM: SF-539 CNS
81.5 µM: MDA-MB-435
60.1 µM: HCT-15 colon
76.5 µM: HOP-92 NSCLC
74.6 µM: MALME-3M melanoma
97.5 µM: NCI-H226 lung
83.6 µM: ACHN renal

COc1cccc(C23CCN(C)C(CC(O)C2)C3)c1OC (stereo not drawn)
> 100 µM: 786-0 renal | A498 renal | A549 NSCLC | ACHN renal | BT-549 breast | CAKI-1 renal | CCRF-CEM leukemia | COLO 205 colon | DU-145 prostate | EKVX NSCLC | HCT-116 colon | HCT-15 colon | HL-60(TB) leukemia | HOP-62 NSCLC | HOP-92 NSCLC | HS 578T breast | HT29 colon | IGROV1 ovarian | K-562 leukemia | KM12 colon | LOX IMVI melanoma | M14 melanoma | MALME-3M melanoma | MCF7 breast | MDA-MB-231 breast | MDA-MB-435 | MDA-N | MOLT-4 leukemia | NCI-H226 lung | NCI-H23 lung | NCI-H522 lung | NCI/ADR-RES ovarian | OVCAR-3 ovarian | OVCAR-4 ovarian | OVCAR-5 ovarian | OVCAR-8 ovarian | PC-3 prostate | RPMI-8226 leukemia | SF-268 CNS | SF-295 CNS | SF-539 CNS | SK-MEL-2 melanoma | SK-MEL-28 melanoma | SK-MEL-5 melanoma | SK-OV-3 ovarian | SN12C renal | SNB-19 CNS | SR leukemia | SW-620 colon | T-47D breast | TK-10 renal | U251 CNS | UACC-257 melanoma | UACC-62 melanoma | UO-31 renal
